The values below come from publication PMC6934184, “Selective DNA-PKcs inhibition extends the therapeutic index of localized radiotherapy and chemotherapy” (The Journal of Clinical Investigation, 2019).

Structures are written as SMILES.

The test deals with T1, CSNK1A1 (CK1 alpha 1) (Homo sapiens, UniProt P48729).
T1 construct: purchased Thermo Fisher Scientific (Life Technologies) SelectScreen
Kind of test: SelectScreen Z'LYTE. In kind it is biochemical. Put shortly:
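SelectScreen broad panel; activity (Z'LYTE, Adapta) plus binding formats. ATP: Km app for CSF1R Z'LYTE; 10 for CAMK1 Adapta. Readout = % per kinase.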

T1 sequence (P48729 whole entry): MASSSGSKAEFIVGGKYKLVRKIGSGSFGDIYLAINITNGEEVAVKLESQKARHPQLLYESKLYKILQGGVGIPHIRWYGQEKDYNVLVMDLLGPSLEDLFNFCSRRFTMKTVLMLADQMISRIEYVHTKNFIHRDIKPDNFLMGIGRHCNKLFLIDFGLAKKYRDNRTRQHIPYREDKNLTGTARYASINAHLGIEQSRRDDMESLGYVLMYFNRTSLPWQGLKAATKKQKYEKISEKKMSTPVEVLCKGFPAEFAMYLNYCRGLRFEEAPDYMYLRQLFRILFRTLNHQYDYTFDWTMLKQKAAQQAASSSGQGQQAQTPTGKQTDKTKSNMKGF

In turn, `CN(C(=O)CN1CCOCC1)c1ccc2sc3c(-c4cccc5c(=O)cc(N6CC7CCC(C6)O7)oc45)cccc3c2c1` [NU5455] showed an inhibition at 1 µM of 0.3%.

By inhibition is commonly meant the relative decrease from the control value, in per cent. Higher therefore signals strong suppression.
